Source: patent US20230066065A1, “USE OF LOW DOSES OF HYDROXYCHLOROQUINE FOR THE TREATMENT OF LIPIN-1 DEFICIENCY” (Institut National de la Santé et de la Recherche Médicale …, priority 2020, published 2023)
“And” between values parts separate entries of the source, which are not always exact repeats. Identical values can stand only once. “Also recorded” adds a separate entry of the source.

Experiments:
[1] = system: patients with Lipin-1 deficiency; experiment: Evaluation of the tolerance of HCQ (allergy, abdominal pain, eye fundus, retinogram); format: in vivo, human
[2] = system: Lipin-1 deficient myoblasts; experiment: MtDNA levels by qPCR in myoblasts under immunometabolic stress; format: cell-based, human; conditions: myoblasts of P1, P4, P6 and P11; results need to be reproduced
Description: (§1) Human primary myoblasts were isolated and grown as described^19. Briefly, CD56+ myoblasts isolated by flow cytometry cell sorting were maintained in HamF10 medium supplemented with 20% fetal calf serum on culture plates coated with 1% gelatin. To mimic RM, F10 medium was replaced by EBSS ([…]) (4 h) with TLR9 agonist CpGA (ODN2216) at the concentration of 10 μg/ml. Myoblasts were incubated with various HCQ concentrations (0.1 to 10 μM) 18 h before and during myoblasts starvation.
MtDNA levels was performed by using qPCR for the mitochondrial12S gene reported to the nuclear β-actin gene. Quantitative PCR was performed in triplicate using the Light Cycler VIIA7 System (Roche).

[3] = system: patients with Lipin-1 deficiency; experiment: Echocardiography (LVEF); format: in vivo, human
Description: Echocardiography was performed using a Vivid 9 system (General Electric Vingmed Ultrasound, Horten, Norway). Transducers ([…]) were chosen based on patient size and morphology to obtain the best image resolution. Images were acquired and stored in a digital format by two experienced examiners for offline analysis using EchoPac version 112.0.1 software (General Electric Vingmed). All records were performed while the patient was in sinus rhythm under continuous monitoring via electrocardiogram. All measurements of ventricular dimensions and function were performed according to the guidelines of the American and European Societies of Echocardiography^51.
The global longitudinal strain of the left ventricle was defined as the percentage of change during myocardial deformation and was evaluated through the speckle-tracking method using EchoPac (2D strain Q analysis) version 112.0.1 (General Electric Vingmed)^11.

TLR9 = experiment: Relative TLR9 expression in myoblasts, RT-qPCR; format: cell-based, human; conditions: patient and control myoblasts; EBSS + CpG-A
Source text: FIG. 7.(A-C) Relative TLR9 expression in Lipin-1 deficient and control myoblasts; comparison between basal condition and immunometabolic stress (A-B) and after HCQ treatment compared to immunometabolic stress (C); RT-qPCR. compared to basal condition in myoblasts. GM: growth medium; E: EBSS; C: CpG-A; HCQ: Hydroxychloroquine.
as §1

[4] = Dosage of Hydroxychloroquine in blood/plasma of treated patients; format: in vivo, human
Description: Clinical and biological parameters were evaluated in parallel of the dosage of HCQ, performed on total blood samples with HPLC. Biological parameter consisted in measuring pro-inflammatory cytokines in plasma with […]. Physical condition included muscle pain (VAS score), quality-of-life assessment (PedsQL™ score), the distance walked during the 6-minute test, the number of steps climbed during the 3-minute test, cardiac function and sub-maximal exercise test. In vitro studies were performed on primary myoblasts from 4 patients and healthy controls. Autophagy was analyzed by measuring the ratio between LC3-II and B-actin by Western Blot. Oxidized DNA was studied by immunofluorescence staining. MtDNA levels was performed by using qPCR.
The dosage of Hydroxychloroquine was performed on total blood samples at a rate of 5 ml per assay tube, using EDTA tubes, and stored at +4° C. (dosages performed in the pharmacology/toxicology Department of the Hospital Cochin and Hospital La Pitié-Salpétrière).

[5] = system: patients with Lipin-1 deficiency; experiment: Off open-label use phases 1 and 2 study: number of rhabdomyolysis (RM) episodes under HCQ; format: in vivo, human
Description: Ten patients with Lipin-1 deficiency were progressively enrolled in an off open-label use phases 1 and 2 study to assess safety, clinical, and biological effects of Hydroxychloroquine Sulfate (HCQ). The diagnosis of Lipin-1 disease was confirmed in all patients (Table 1). LPIN1 genotyping was performed by PCR analysis of DNA isolated from blood as previously described^2. The patients presented severe episodes of acute RM (1 to 6) defined as creatine kinase (CK) levels >6 000 U/L (normal<160 U/L), associated with mild viral illness, fasting, or prolonged exercise. Chronic symptoms such as muscle pain, fatigability, exercise intolerance, or more rarely cardiac feature were associated in 6 patients.
The patients were treated with oral HCQ at an initial posology of 6.5 mg/Kg/day in one intake, not exceeding 400 mg/day, with different treatment duration depending on the patient (Table 2). Tablets (200 mg) were proposed to patients over 6 years old, and soluble form to patients under 6 years old.
Efficacy and safety of HCQ in patients were assessed by clinical and biological evaluation determined at baseline before HCQ treatment and at regular intervals after initiation of HCQ treatment (every 3 to 6 months).
The clinical parameters encompassed the RM episode number and several standardized tools based on age at study start: auto evaluations assessing the muscle pain and the quality of life, 6-Minute Walk Test, 3-Minute Step Test, heart ultrasounds, and exercise tolerance test in the subgroup of subjects>6 years old^11.
The patients were treated with oral HCQ at a initial posology of 6.5 mg/Kg/day in one intake, not exceeding 400 mg/day, with different treatment duration depending on the patient (Table 2). The data were collected at the Necker Hospital (Reference Center of Metabolic diseases) during the visits: M0 (before treatment), M3 (3 months treatment), M6 then every 6 months. The efficacy outcome of the treatment was measured by clinical and biological endpoints.

CYP3A4/CYP2C8 = conditions: cited from earlier work
[6] = system: primary patients myoblasts; format: cell-based, human
Source text: Then, we were interested in the dosage og HCQ in vitro in order to analyse the HCQ incorporation in primary patients myoblasts.

[7] = system: patients with Lipin-1 deficiency; experiment: Muscle pain (VAS) and quality-of-life (PedsQL) questionnaires; format: in vivo, human
Source text: VAS questionnaire was completed by the patient and their parents for evaluating muscle pain, ranged from score 4: not painful, to 40: very painful. Two Quality-of-life assessment ([…]) adapted to the age of the patient were completed by either the patient or their parents. The score ranged from 0: very good quality of life, to 92: very bad quality of life.

[8] = system: Lipin-1 deficient myoblasts; experiment: Oxidized DNA (8-OHdG) immunofluorescence staining in myoblasts under immunometabolic stress; format: cell-based, human
Description: as §1
Imuunofluorescence staining. Oxidized DNA on fixed cells was detected with mouse-anti-8-OHdG (sc-66036, Santa Cruz Biotechnology, IF: 1:100)^54 and analyzed by confocal fluorescence microscopy. Images were recorded on a confocal LSM 700 microscope (Zeiss), with a 63× oil immersion objective and quantification was performed by analyzing cells on the Icy software (v 1.9.5.1 BioImage Analysis unit, Institut Pasteur, France).

[9] = system: patients with Lipin-1 deficiency; experiment: 6-Minute Walk Test and 3-Minute Step Test; format: in vivo, human; conditions: patients older than 6 y; versus prior treatment
Description: Muscle function was assessed by walking capacity within a 6-Minute Walk Test (6 MWT)^48,49 and by stair climbing capacity within a 3-Minute Step Test (3 MST)^50. The objectives were to walk and climb steps as far as possible for 6 and 3 minutes respectively.

MCP-1 = experiment: Plasma cytokine concentration, Cytometric Bead Assay; format: in vivo, human; conditions: all patients tested, following vs prior treatment
Description: (§2) Cytokine concentrations were measured in plasma using a ten-plex Cytometric Bead Assay (CBA) kit from BD Biosciences, according to the manufacturer's instructions, then analyzed by flow cytometry (ARIA II; BD Biosciences) with CBA Analysis Software (FCAP Array version 3.0; Soft Flow, St Louis Park, Minn.). The results were expressed in picograms per milliliter.

IL8 = experiment: as above; format: in vivo, human; conditions: all patients tested, following vs prior treatment
Description: as §2

[10] = system: LC3-II in Lipin-1 deficient and control myoblasts; experiment: Autophagy: LC3-II/B-actin ratio by Western Blot in primary myoblasts under immunometabolic stress (EBSS + CpG-A); format: cell-based, human
Description: as §1
Autophagy measurements. Autophagy was analyzed using the LC3-II/B-actin ratio by Western Blot. The following antibodies used in this study were: mouse-anti-β-actin (sc-81178, Santa Cruz Biotechnology, western blotting (WB): 1:5000), mouse-anti-LC3B (clone 4E12, MBL International, IF: 1:100).

[11] = system: patients with Lipin-1 deficiency; experiment: Cardiopulmonary exercise test, cycle ergometer (dQ/dVO2); format: in vivo, human
Description: Patients≥6 years old underwent cardiopulmonary exercise tests (CPETs). CPETs were performed to assess the maximal exercise capacity using a cycle ergometer^11. The CPET data were compared with retrospectively collected data from a population of 21 paired children who required non-invasive cardiac output monitoring because of dyspnoea during exercise or chest pain and were considered healthy at the end of the examinations. Pairing was conducted according to sex and age. Oxygen uptake (VO2) and carbon dioxide output were measured breath-by-breath by an automated system (Sensor Medic, MSE). Measurements were taken at rest and every 20 s throughout exercise and recovery. The exercise test was considered maximal if the patient achieved a respiratory exchange ratio (RER)>1.1 and/or a maximal heart rate>85% of the theoretical maximal heart rate, and/or the oxygen uptake reached a plateau^11. Cardiac output (Q) and stroke volume (SV) were determined noninvasively during the exercise test using a thoracic bioelectrical impedance device (PhysioFlow, PF-05 Lab 1, Manatec Biomedical) as routinely performed in our centre. We calculated the slope of the relationship between cardiac output and oxygen utilization (dQ/dVO2) using measurements of Q and VO2 at rest as well as during submaximal and maximal exercise.

CCN(CCO)CCCC(C)Nc1ccnc2cc(Cl)ccc12.O=S(=O)(O)O (centres unmarked) [HCQ, 2-[[4-[(7-Chloro-4-quinolyl)amino]pentyl]ethylamino] ethanol sulfate (1:1)]
Electroretinogramms and eye fundus ([1]; 12 months of treatment, all patients tested): normal
allergy symptoms with HCQ treatment ([1]; all patients): Any allergy symptoms have been observed
tolerance of HCQ in patients ([1]; overall): well tolerated
Side effects associated with HCQ ([1]; patients 5 and 6): abdominal pain
accumulation of mtDNA under immunometabolic stress [2]: prevents this accumulation
LVEF ([3]; patient P3, M3 of treatment, 45% before): 62%
LVEF ([3]; patient P3, M6, M9, M12 following treatment): 63%
LVEF ([3]; patient P3, after they stopped treatment): 55%
TLR9 expression under stress condition (TLR9): variable effect; also recorded: could not decrease TLR9 expression
plasma HCQ levels ([4]; P5 and P6, who experimented RM, oral 6.5 mg/Kg/day): 1000 ng/mL
Plasma HCQ (μg/L) mean ([4]; patient P1-P10, oral HCQ, mean of visits): 107 µg/L and 724 µg/L and 627 µg/L and 1048 µg/L and 1040 µg/L and 290 µg/L and 610 µg/L and 407 µg/L and 752 µg/L and 318 µg/L
Plasma HCQ (μg/L) (median) ([4]; patient P1-P10, oral HCQ, median of visits): (107) μg/L and (854) μg/L and (597) μg/L and (955) μg/L and (1092) μg/L and (205) μg/L and (610) μg/L and (367) μg/L and (733) μg/L and 325) μg/L
Levels of HCQ measured at each visit ([4]; patients other than P5 and P6, oral 6.5 mg/Kg/day): ~400 ng/mL
patients without new acute RM under treatment ([5]; of 10 patients, 29 RM prior to treatment): Seven
RM after resumption of treatment ([5]; patient P1): No other RM was observed
RM after HCQ disruption ([5]; patient P1, discontinued at M9, within 6 weeks after disruption): underwent extensive RM
Number of severe RM (CPK > 10k U/L) during treatment ([5]; patient P1-P10, oral HCQ, initial 6.5 mg/Kg/day, treatment duration 12-41 months): 0 (7×) and 1 and 3 and 4
episodes of RM despite HCQ ([5]; patient P5, context of gastroenteritis): one
episodes of RM despite HCQ ([5]; patient P6, context of gastroenteritis): two
benefit effect of HCQ ([5]; patient P7): had not seem to have benefit effect
share of the HCQ metabolism by CYP3A4/CYP2C8 (CYP3A4/CYP2C8): 80%
HCQ incorporation in primary myoblasts [6]: HCQ incorporation is effective
VAS pain score, change under treatment ([7]; 2 other patients): no difference
VAS pain score, median following treatment ([7]; 4 patients, score 4 not painful - 40 very painful, median 12.25 prior treatment): 7
PedsQL quality-of-life median score under treatment ([7]; 6 patients, 0 very good - 92 very bad, score 25 before treatment): 17.1
oxDNA levels in myoblasts ([8]; HCQ 0.1 to 10 μM): normalized oxDNA levels
accumulation of oxDNA under immunometabolic stress ([8]; myoblasts of P1, P4, P6 and P11, EBSS + CpG-A): prevents this accumulation
increase of median score in 3 MST following treatment [9]: 31 steps
increase of median score in 6 MWT following treatment [9]: ~100 meters
plasma level of MCP-1 (MCP-1): reduced
plasma level of IL8 (IL8): reduced
LC3-II accumulation (autophagy blockage) under immunometabolic stress ([10]; HCQ 10 μM, control and patients myoblasts): potentiates LC3-II accumulation
LC3-II accumulation (autophagy blockage) under immunometabolic stress ([10]; HCQ 0.1 and 1 μM): less deleterious
dQ/dVO2 ratio after initiation of treatment, global mean ([11]; four patients with abnormal peripheral muscle, baseline means 7, 9.5, 9.1, 7.5): 5.8
dQ/dVO2 ratio under treatment, mean ([11]; patient P3 with cardiac failure, baseline mean 4): 4.8
